Each structure is given as a SMILES string. Counter-ions that a name gives are not always drawn.

The first assay deals with BACE1 (Homo sapiens (Human), UniProt P56817). Nature of the assay: BACE1 Cell-Free Assay (fluorescence polarization). In kind it is biochemical. Conditions: geometric mean of 2-4 determinations unless otherwise indicated (b: ≧5; c: single determination); read-out: BACE1 Cell-free Assay IC50. An excerpt: This assay measures the inhibition of the beta-secretase enzyme as it cleaves a non-native peptide.
Sequence of BACE1 (P56817 46-457): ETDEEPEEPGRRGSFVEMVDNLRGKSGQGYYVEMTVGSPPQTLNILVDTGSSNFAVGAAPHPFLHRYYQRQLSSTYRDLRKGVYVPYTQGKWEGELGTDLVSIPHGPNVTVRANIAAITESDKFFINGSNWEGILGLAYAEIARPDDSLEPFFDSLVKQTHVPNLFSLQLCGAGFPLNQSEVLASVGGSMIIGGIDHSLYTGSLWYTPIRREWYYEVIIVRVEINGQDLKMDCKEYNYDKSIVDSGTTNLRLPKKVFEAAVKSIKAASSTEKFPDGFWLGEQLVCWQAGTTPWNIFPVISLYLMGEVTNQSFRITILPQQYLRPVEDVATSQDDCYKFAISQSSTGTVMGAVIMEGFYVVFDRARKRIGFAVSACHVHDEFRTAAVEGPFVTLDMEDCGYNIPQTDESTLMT
A synthetic APP substrate that can be cleaved by beta-secretase having N-terminal biotin and made fluorescent by the covalent attachment of Oregon Green at the Cys residue is used to assay beta-secretase activity in the presence or absence of the inhibitory compounds. […] The BACE1 enzyme is affinity purified material from conditioned media of CHO-K1 cells that have been transfected with a soluble BACE construct (BACE1deltaTM96His). […] Plates are covered and incubated for 3 hours at 37° C. […] The activity of the beta-secretase enzyme is detected by changes in the fluorescence polarization that occur when the substrate is cleaved by the enzyme.
Background: Fluorescence polarisation rises when a labelled molecule tumbles more slowly, as on binding a larger partner.
The IC50 is the midpoint of a concentration-inhibition curve. `C[C@H]1C[C@H]2CSC(N)=N[C@@]2(c2nc(NC(=O)c3cc(C4CC4)on3)cs2)CO1` [Example 31, N-{2-[(4aR,6S,8aR)-2-amino-6-methyl-4,4a,5,6-tetrahydropyrano[3,4-d][1,3]thiazin-8a(8H)-yl]-1,3-thiazol-4-yl}-5-cyclopropyl-1,2-oxazole-3-carboxamide]: the IC50 came out at 3820 nM.

Regarding `C[C@H]1C[C@H]2CSC(N)=N[C@@]2(c2nc(NC(=O)c3cc(C(F)(F)F)on3)cs2)CO1` [Example 32, N-{2-[(4aR,6S,8aR)-2-amino-6-methyl-4,4a,5,6-tetrahydropyrano[3,4-d][1,3]thiazin-8a(8H)-yl]-1,3-thiazol-4-yl}-5-(trifluoromethyl)-1,2-oxazole-3-carboxamide, trifluoroacetate salt], the 50% inhibitory concentration (IC50) is 1400 nM.

`C[C@H]1C[C@H]2CSC(N)=N[C@@]2(c2nc(NC(=O)c3cn(C4CCC4)cn3)cs2)CO1` [Example 33, N-{2-[(4aR,6S,8aR)-2-amino-6-methyl-4,4a,5,6-tetrahydropyrano[3,4-d][1,3]thiazin-8a(8H)-yl]-1,3-thiazol-4-yl}-1-cyclobutyl-1H-imidazole-4-carboxamide]: the 50% inhibitory concentration (IC50) came to 34100 nM.

As to `C[C@H]1C[C@H]2CSC(N)=N[C@@]2(c2nc(NC(=O)c3cc(C4CCC4)nn3C)cs2)CO1` [Example 34, N-{2-[(4aR,6S,8aR)-2-amino-6-methyl-4,4a,5,6-tetrahydropyrano[3,4-d][1,3]thiazin-8a(8H)-yl]-1,3-thiazol-4-yl}-3-cyclobutyl-1-methyl-1H-pyrazole-5-carboxamide], the concentration for half-maximal inhibition (IC50) was found to be 1480 nM.

`COCc1cc(C(=O)Nc2csc([C@]34CO[C@@H](C)C[C@H]3CSC(N)=N4)n2)no1` [Example 35, N-{2-[(4aR,6S,8aR)-2-amino-6-methyl-4,4a,5,6-tetrahydropyrano[3,4-d][1,3]thiazin-8a(8H)-yl]-1,3-thiazol-4-yl}-5-(methoxymethyl)-1,2-oxazole-3-carboxamide]: the IC50 was 5860 nM.

With `C[C@H]1C[C@H]2CSC(N)=N[C@@]2(c2nc(NC(=O)c3ccc(=O)n(C)c3)cs2)CO1` [Example 36, N-{2-[(4aR,6S,8aR)-2-amino-6-methyl-4,4a,5,6-tetrahydropyrano[3,4-d][1,3]thiazin-8a(8H)-yl]-1,3-thiazol-4-yl}-1-methyl-6-oxo-1,6-dihydropyridine-3-carboxamide], the IC50 worked out at 1410 nM.

As to `Cc1nc(C(=O)Nc2csc([C@]34CO[C@@H](C)C[C@H]3CSC(N)=N4)n2)c(C(F)(F)F)o1` [Example 38, N-{2-[(4aR,6S,8aR)-2-amino-6-methyl-4,4a,5,6-tetrahydropyrano[3,4-d][1,3]thiazin-8a(8H)-yl]-1,3-thiazol-4-yl}-2-methyl-5-(trifluoromethyl)-1,3-oxazole-4-carboxamide, trifluoroacetate salt], the IC50 was found to be 145 nM.

In the case of `Cc1cc(C(=O)Nc2csc([C@]34CO[C@@H](C)C[C@H]3CSC(N)=N4)n2)n(C)n1` [Example 41, N-{2-[(4aR,6S,8aR)-2-amino-6-methyl-4,4a,5,6-tetrahydropyrano[3,4-d][1,3]thiazin-8a(8H)-yl]-1,3-thiazol-4-yl}-1,3-dimethyl-1H-pyrazole-5-carboxamide, trifluoroacetate salt], the IC50 was 364 nM.

On to `CCc1nc(C(=O)Nc2csc([C@]34CO[C@@H](C)C[C@H]3CSC(N)=N4)n2)co1` [Example 42, N-{2-[(4aR,6S,8aR)-2-amino-6-methyl-4,4a,5,6-tetrahydropyrano[3,4-d][1,3]thiazin-8a(8H)-yl]-1,3-thiazol-4-yl}-2-ethyl-1,3-oxazole-4-carboxamide, trifluoroacetate salt], for which the IC50 was determined as 341 nM.

Turning to `C[C@H]1C[C@H]2CSC(N)=N[C@@]2(c2nc(NC(=O)c3ncn(C)n3)cs2)CO1` [Example 43, N-{2-[(4aR,6S,8aR)-2-amino-6-methyl-4,4a,5,6-tetrahydropyrano[3,4-d][1,3]thiazin-8a(8H)-yl]-1,3-thiazol-4-yl}-1-methyl-1H-1,2,4-triazole-3-carboxamide, trifluoroacetate salt], the 50% inhibitory concentration (IC50) was found to be 435 nM.

On to `C[C@H]1C[C@H]2CSC(N)=N[C@@]2(c2nc(NC(=O)c3ccc(OC(C)(F)F)cn3)cs2)CO1` [Example 44, N-{2-[(4aR,6S,8aR)-2-amino-6-methyl-4,4a,5,6-tetrahydropyrano[3,4-d][1,3]thiazin-8a(8H)-yl]-1,3-thiazol-4-yl}-5-(1,1-difluoroethoxy)pyridine-2-carboxamide], for which the half-inhibitory concentration (IC50) stood at 185 nM.

As to `COc1cnc(C(=O)Nc2csc([C@]34CO[C@@H](C)C[C@H]3CSC(N)=N4)n2)c(C)n1` [Example 46, N-{2-[(4aR,6S,8aR)-2-amino-6-methyl-4,4a,5,6-tetrahydropyrano[3,4-d][1,3]thiazin-8a(8H)-yl]-1,3-thiazol-4-yl}-5-methoxy-3-methylpyrazine-2-carboxamide], the IC50 was determined as 320 nM.

For the compound `COc1cnc(C(=O)Nc2csc([C@]34CO[C@@H](C)C[C@H]3CSC(N)=N4)n2)c(C)c1` [Example 47, N-{2-[(4aR,6S,8aR)-2-amino-6-methyl-4,4a,5,6-tetrahydropyrano[3,4-d][1,3]thiazin-8a(8H)-yl]-1,3-thiazol-4-yl}-5-methoxy-3-methylpyridine-2-carboxamide], the IC50 was determined as 101 nM.

Take `C[C@H]1C[C@H]2CSC(N)=N[C@@]2(c2nc(NC(=O)c3ccc(OC(F)F)nc3)cs2)CO1` [Example 48, N-{2-[(4aR,6S,8aR)-2-amino-6-methyl-4,4a,5,6-tetrahydropyrano[3,4-d][1,3]thiazin-8a(8H)-yl]-1,3-thiazol-4-yl}-6-(difluoromethoxy)pyridine-3-carboxamide]: the IC50 came out at 232 nM.

Take `Cc1nc(C(=O)Nc2csc([C@]34CO[C@@H](C)C[C@H]3CSC(N)=N4)n2)co1` [Example 49, N-{2-[(4aR,6S,8aR)-2-amino-6-methyl-4,4a,5,6-tetrahydropyrano[3,4-d][1,3]thiazin-8a(8H)-yl]-1,3-thiazol-4-yl}-2-methyl-1,3-oxazole-4-carboxamide]: the IC50 was 103 nM.

The assay is the same for the next values; noted with them: read-out: BACE1 Cell-free Assay IC50.
For `C[C@H]1C[C@H]2CSC(N)=N[C@@]2(c2nc(NC(=O)c3ccc(OCC(F)F)cn3)cs2)CO1` [Example 37, N-{2-[(4aR,6S,8aR)-2-amino-6-methyl-4,4a,5,6-tetrahydropyrano[3,4-d][1,3]thiazin-8a(8H)-yl]-1,3-thiazol-4-yl}-5-(2,2-difluoroethoxy)pyridine-2-carboxamide, formate salt], the IC50 is 485 nM.

As to `CCc1cc(C(=O)Nc2csc([C@]34CO[C@@H](C)C[C@H]3CSC(N)=N4)n2)n(C)n1` [Example 39, N-{2-[(4aR,6S,8aR)-2-amino-6-methyl-4,4a,5,6-tetrahydropyrano[3,4-d][1,3]thiazin-8a(8H)-yl]-1,3-thiazol-4-yl}-3-ethyl-1-methyl-1H-pyrazole-5-carboxamide, trifluoroacetate salt], the half-maximal inhibitory concentration (IC50) was 369 nM.

`C[C@H]1C[C@H]2CSC(N)=N[C@@]2(c2nc(NC(=O)c3cnn(C)n3)cs2)CO1` [Example 40, N-{2-[(4aR,6S,8aR)-2-amino-6-methyl-4,4a,5,6-tetrahydropyrano[3,4-d][1,3]thiazin-8a(8H)-yl]-1,3-thiazol-4-yl}-2-methyl-2H-1,2,3-triazole-4-carboxamide, trifluoroacetate salt]: the IC50 is 134 nM.
